Test results: patent US12594276B2, “Inhibitors of human immunodeficiency virus replication” (ViiV Healthcare UK (No.5) Limited, priority 2024, dated 2026)

What was measured:
[1] = Compound cytotoxicity, XTT-based colorimetric assay; format: cell-based; settings: human; uninfected MT2 cells, day 4, XTT; read-out: CC50
Procedure, shortened: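 Cells seeded as for the antiviral assay but left uninfected (MT2). Compound exposure continued to day 4. XTT reagent added and colour read. CC50 calculated.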

[2] = test system: recombinant NL4-3 virus (nef section replaced with Renilla luciferase gene) in MT-2 cells; test: HIV cell culture assay (antiviral activity, luciferase readout); format: cell-based; settings: Renilla, NL43, MT-2 cells infected for 4-5 days with recombinant NL4-3 Renilla luciferase virus
Procedure, shortened: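 Reporter virus is produced in 293T cells and its titer set in MT-2 cells by luciferase activity. MT-2 cells are then infected in the presence of serially diluted compound for 4-5 days. Luciferase is quantified and EC50 fitted to the median effect equation.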

Q: For `CCOCCn1nc(NS(C)(=O)=O)c2c(Cl)ccc(-n3c([C@H](Cc4cc(F)cc(F)c4)NC(=O)Cn4nc(C(F)F)c5c4C(F)(F)[C@@H]4C[C@H]54)nc4nc(C5CCC(F)(F)CC5)cc(C)c4c3=O)c21` (atropisomer, axis not shown; (P)) [Example 60, N-[(1S)-1-[(3P)-3-[4-chloro-1-(2-ethoxyethyl)-3-methanesulfonamido-1H-indazol-7-yl]-7-(4,4-difluorocyclohexyl)-5-methyl-4-oxo-3H,4H-pyrido[2,3-d]pyrimidin-2-yl]-2-(3,5-difluorophenyl)ethyl]-2-[(2S,4R)-9-(difluoromethyl)-5,5-difluoro-7,8-diazatricyclo[4.3.0.0^2,^4]nona-1(6),8-dien-7-yl]acetamide], which CC50 at 4 days [1] is on record?
A: Its CC50 at 4 days is greater than 50 nM.

Q: And the EC50 [2]?
A: Its EC50 is 0.012 nM.

Q: For `Cc1cc(C2CCC(F)(F)CC2)nc2nc([C@H](Cc3cc(F)cc(F)c3)NC(=O)Cn3nc(C(F)F)c4c3C(F)(F)[C@@H]3C[C@H]43)n(-c3ccc(Cl)c4c(NS(C)(=O)=O)nn(CCOCC(F)(F)F)c34)c(=O)c12` (atropisomer, axis not shown; (P)) [Example 72, N-[(1S)-1-[(3P)-3-{4-chloro-3-methanesulfonamido-1-[2-(2,2,2-trifluoroethoxy)ethyl]-1H-indazol-7-yl}-7-(4,4-difluorocyclohexyl)-5-methyl-4-oxo-3H,4H-pyrido[2,3-d]pyrimidin-2-yl]-2-(3,5-difluorophenyl)ethyl]-2-[(2S,4R)-9-(difluoromethyl)-5,5-difluoro-7,8-diazatricyclo[4.3.0.0^2,^4]nona-1(6),8-dien-7-yl]acetamide], which CC50 at 4 days [1] is on record?
A: The CC50 at 4 days was greater than 50 nM.

Q: What about the EC50 [2] of the same compound?
A: Its EC50 is 0.029 nM.

Q: With `CO[C@H](C)Cn1nc(NS(C)(=O)=O)c2c(Cl)ccc(-n3c([C@H](Cc4cc(F)cc(F)c4)NC(=O)Cn4nc(C(F)F)c5c4C(F)(F)[C@@H]4C[C@H]54)nc4nc(C5CCC(F)(F)CC5)cc(C)c4c3=O)c21` (atropisomer, axis not shown; (P)) [Example 77, N-[(1S)-1-[(3P)-3-{4-chloro-3-methanesulfonamido-1-[(2R)-2-methoxypropyl]-1H-indazol-7-yl}-7-(4,4-difluorocyclohexyl)-5-methyl-4-oxo-3H,4H-pyrido[2,3-d]pyrimidin-2-yl]-2-(3,5-difluorophenyl)ethyl]-2-[(2S,4R)-9-(difluoromethyl)-5,5-difluoro-7,8-diazatricyclo[4.3.0.0^2,^4]nona-1(6),8-dien-7-yl]acetamide] as the compound, how does the CC50 at 4 days [1] read?
A: The CC50 at 4 days was greater than 50 nM.

Q: And the EC50 [2]?
A: Its EC50 is 0.018 nM.

Q: Which CC50 at 4 days [1] does the source give for `CO[C@@H](C)Cn1nc(NS(C)(=O)=O)c2c(Cl)ccc(-n3c([C@H](Cc4cc(F)cc(F)c4)NC(=O)Cn4nc(C(F)F)c5c4C(F)(F)[C@@H]4C[C@H]54)nc4nc(C5CCC(F)(F)CC5)cc(C)c4c3=O)c21` (atropisomer, axis not shown; (P)) [Example 78, N-[(1S)-1-[(3P)-3-{4-chloro-3-methanesulfonamido-1-[(2S)-2-methoxypropyl]-1H-indazol-7-yl}-7-(4,4-difluorocyclohexyl)-5-methyl-4-oxo-3H,4H-pyrido[2,3-d]pyrimidin-2-yl]-2-(3,5-difluorophenyl)ethyl]-2-[(2S,4R)-9-(difluoromethyl)-5,5-difluoro-7,8-diazatricyclo[4.3.0.0^2,^4]nona-1(6),8-dien-7-yl]acetamide] here?
A: Its CC50 at 4 days is greater than 50 nM.

Q: And the EC50 [2]?
A: Its EC50 is 0.016 nM.

Q: With `COCCn1nc(NS(C)(=O)=O)c2c(Cl)ccc(-n3c([C@H](Cc4cc(F)cc(F)c4)NC(=O)Cn4nc(C(F)F)c5c4C(F)(F)[C@@H]4C[C@H]54)nc4nc(C5CCC(F)(F)CC5)cc(C)c4c3=O)c21` (atropisomer, axis not shown; (P)) [Example 84, N-[(1S)-1-[(3P)-3-[4-chloro-3-methanesulfonamido-1-(2-methoxyethyl)-1H-indazol-7-yl]-7-(4,4-difluorocyclohexyl)-5-methyl-4-oxo-3H,4H-pyrido[2,3-d]pyrimidin-2-yl]-2-(3,5-difluorophenyl)ethyl]-2-[(2S,4R)-9-(difluoromethyl)-5,5-difluoro-7,8-diazatricyclo[4.3.0.0^2,^4]nona-1(6),8-dien-7-yl]acetamide] as the compound, how does the CC50 at 4 days [1] read?
A: Its CC50 at 4 days is greater than 50 nM.

Q: And the EC50 [2]?
A: The EC50 was 0.016 nM.

Q: Which results are given for `COCCCn1nc(NS(C)(=O)=O)c2c(Cl)ccc(-n3c([C@H](Cc4cc(F)cc(F)c4)NC(=O)Cn4nc(C(F)F)c5c4C[C@@H]4C[C@H]54)nc4nc(C5CCC(F)(F)CC5)cc(C)c4c3=O)c21` (atropisomer, axis not shown; (P)) [Example 86, N-[(1S)-1-[(3P)-3-[4-chloro-3-methanesulfonamido-1-(3-methoxypropyl)-1H-indazol-7-yl]-7-(4,4-difluorocyclohexyl)-5-methyl-4-oxo-3H,4H-pyrido[2,3-d]pyrimidin-2-yl]-2-(3,5-difluorophenyl)ethyl]-2-[(2S,4S)-9-(difluoromethyl)-7,8-diazatricyclo[4.3.0.0^2,^4]nona-1(6),8-dien-7-yl]acetamide]?
A: CC50 at 4 days [1]: > 50 nM; EC50 [2]: 0.011 nM

Q: Which results are given for `COCCCn1nc(NS(C)(=O)=O)c2c(Cl)ccc(-n3c([C@H](Cc4cc(F)cc(F)c4)NC(=O)Cn4nc(C5CC5)c5c4C[C@@H]4C[C@H]54)nc4nc(C5CCC(F)(F)CC5)cc(C)c4c3=O)c21` (atropisomer, axis not shown; (P)) [Example 87, N-[(1S)-1-[(3P)-3-[4-chloro-3-methanesulfonamido-1-(3-methoxypropyl)-1H-indazol-7-yl]-7-(4,4-difluorocyclohexyl)-5-methyl-4-oxo-3H,4H-pyrido[2,3-d]pyrimidin-2-yl]-2-(3,5-difluorophenyl)ethyl]-2-[(2S,4S)-9-cyclopropyl-7,8-diazatricyclo[4.3.0.0^2,^4]nona-1(6),8-dien-7-yl]acetamide]?
A: CC50 at 4 days [1]: > 50 nM; EC50 [2]: 0.019 nM

Q: Which CC50 at 4 days [1] does the source give for `COCCCn1nc(NS(C)(=O)=O)c2c(Cl)ccc(-n3c([C@H](Cc4cc(F)cc(F)c4)NC(=O)Cn4nc(C(F)(F)F)c5c4C[C@@H]4C[C@H]54)nc4nc(C5CCC(F)(F)CC5)cc(C)c4c3=O)c21` (atropisomer, axis not shown; (P)) [Example 88, N-[(1S)-1-[(3P)-3-[4-chloro-3-methanesulfonamido-1-(3-methoxypropyl)-1H-indazol-7-yl]-7-(4,4-difluorocyclohexyl)-5-methyl-4-oxo-3H,4H-pyrido[2,3-d]pyrimidin-2-yl]-2-(3,5-difluorophenyl)ethyl]-2-[(2S,4S)-9-(trifluoromethyl)-7,8-diazatricyclo[4.3.0.0^2,^4]nona-1(6),8-dien-7-yl]acetamide] here?
A: Its CC50 at 4 days is greater than 50 nM.

Q: What about the EC50 [2] of the same compound?
A: Its EC50 is 0.021 nM.

Q: With `COCCCn1nc(NS(C)(=O)=O)c2c(Cl)ccc(-n3c([C@H](Cc4cc(F)cc(F)c4)NC(=O)Cn4nc(C(F)(F)F)c5c4C(F)(F)[C@@H]4C[C@H]54)nc4nc(C5CCC(F)(F)CC5)cc(C)c4c3=O)c21` (atropisomer, axis not shown; (P)) [Example 89, N-[(1S)-1-[(3P)-3-[4-chloro-3-methanesulfonamido-1-(3-methoxypropyl)-1H-indazol-7-yl]-7-(4,4-difluorocyclohexyl)-5-methyl-4-oxo-3H,4H-pyrido[2,3-d]pyrimidin-2-yl]-2-(3,5-difluorophenyl)ethyl]-2-[(2S,4R)-5,5-difluoro-9-(trifluoromethyl)-7,8-diazatricyclo[4.3.0.0^2,^4]nona-1(6),8-dien-7-yl]acetamide] as the compound, how does the CC50 at 4 days [1] read?
A: Its CC50 at 4 days is greater than 50 nM.

Q: And the EC50 [2]?
A: The EC50 was 0.014 nM.

Q: With `COCCCn1nc(NS(C)(=O)=O)c2c(Cl)ccc(-n3c([C@H](Cc4cc(F)cc(F)c4)NC(=O)Cn4nc(C(F)F)c5c4C(F)(F)[C@@H]4C[C@H]54)nc4nc(C5CCC(F)(F)CC5)cc(C)c4c3=O)c21` (atropisomer, axis not shown; (P)) [Example 90, N-[(1S)-1-[(3P)-3-[4-chloro-3-methanesulfonamido-1-(3-methoxypropyl)-1H-indazol-7-yl]-7-(4,4-difluorocyclohexyl)-5-methyl-4-oxo-3H,4H-pyrido[2,3-d]pyrimidin-2-yl]-2-(3,5-difluorophenyl)ethyl]-2-[(2S,4R)-9-(difluoromethyl)-5,5-difluoro-7,8-diazatricyclo[4.3.0.0^2,^4]nona-1(6),8-dien-7-yl]acetamide] as the compound, how does the CC50 at 4 days [1] read?
A: Its CC50 at 4 days is greater than 50 nM.

Q: What about the EC50 [2] of the same compound?
A: The EC50 was 0.018 nM.

Q: With `Cc1cc(C2CCC(F)(F)CC2)nc2nc([C@H](Cc3cc(F)cc(F)c3)NC(=O)Cn3nc(C(F)F)c4c3C(F)(F)[C@@H]3C[C@H]43)n(-c3ccc(Cl)c4c(NS(C)(=O)=O)nn(CCOC(F)F)c34)c(=O)c12` (atropisomer, axis not shown; (P)) [Example 94, N-[(1S)-1-[(3P)-3-{4-chloro-1-[2-(difluoromethoxy)ethyl]-3-methanesulfonamido-1H-indazol-7-yl}-7-(4,4-difluorocyclohexyl)-5-methyl-4-oxo-3H,4H-pyrido[2,3-d]pyrimidin-2-yl]-2-(3,5-difluorophenyl)ethyl]-2-[(2S,4R)-9-(difluoromethyl)-5,5-difluoro-7,8-diazatricyclo[4.3.0.0^2,^4]nona-1(6),8-dien-7-yl]acetamide] as the compound, how does the CC50 at 4 days [1] read?
A: The CC50 at 4 days was greater than 50 nM.

Q: And the EC50 [2]?
A: The EC50 was 0.023 nM.

Q: For `Cc1cc(C2CCC(F)(F)CC2)nc2nc([C@H](Cc3cc(F)cc(F)c3)NC(=O)Cn3nc(C(F)F)c4c3C(F)(F)[C@@H]3C[C@H]43)n(-c3ccc(Cl)c4c(NS(C)(=O)=O)nn(CCN5CCOCC5)c34)c(=O)c12` (atropisomer, axis not shown; (P)) [Example 105, N-[(1S)-1-[(3P)-3-{4-chloro-3-methanesulfonamido-1-[2-(morpholin-4-yl)ethyl]-1H-indazol-7-yl}-7-(4,4-difluorocyclohexyl)-5-methyl-4-oxo-3H,4H-pyrido[2,3-d]pyrimidin-2-yl]-2-(3,5-difluorophenyl)ethyl]-2-[(2S,4R)-9-(difluoromethyl)-5,5-difluoro-7,8-diazatricyclo[4.3.0.0^2,^4]nona-1(6),8-dien-7-yl]acetamide], which CC50 at 4 days [1] is on record?
A: The CC50 at 4 days was greater than 50 nM.

Q: What about the EC50 [2] of the same compound?
A: Its EC50 is 0.011 nM.
